In US8372967B2, “Compounds and methods for modulating expression of GCCR” (Isis Pharmaceuticals, Inc., priority 2006, dated 2013):
Strand notation (5' to 3'): a small letter for the sugar, then the base; units joined by * are phosphorothioate-linked, units joined directly phosphodiester-linked; [ ] holds rarer units or linkages, { } end groups; capitals alone tell only the bases. e = 2'-O-(2-methoxyethyl) (MOE); [5mC] = 5-methylcytosine; d = 2'-deoxy (DNA)

Experiments:
Type in all cases: in vivo, mouse
[1] = system: GCGR mRNA; test: GCGR mRNA levels in liver, C57/BL6 mice, single i.p. dose (Tables 35-41)
Description: Prior to quantitative PCR analysis, primer-probe sets specific to the target gene being measured were evaluated for their ability to be “multiplexed” with a GAPDH amplification reaction. After isolation the RNA is subjected to sequential reverse transcriptase (RT) reaction and real-time PCR, both of which are performed in the same well. RT and PCR reagents were obtained from Invitrogen Life Technologies (Carlsbad, Calif.). […] The RT reaction was carried out by incubation for 30 minutes at 48° C. Following a 10 minute incubation at 95° C. to activate the PLATIN 9M® Taq, 40 cycles of a two-step PCR protocol were carried out: 95° C. for 15 seconds (denaturation) followed by 60° C. for 1.5 minutes (annealing/extension).
170 μL of RiboGreen® working reagent (RiboGreen® reagent diluted 1:350 in 10 mM Tris-HCl, 1 mM EDTA, pH 7.5) was pipetted into a 96-well plate containing 30 μL purified cellular RNA. The plate was read in a CytoFluor® 4000 (PE Applied Biosystems) with excitation at 485 nm and emission at 530 nm.
(§1) Eight-week old male C57/BL6 mice (Jackson Laboratory, Bar Harbor, Me.) were administered a single dose of GCGR oligonucleotide by intraperitoneal injection at a concentration of […]. Each dose group consisted of four animals. Shown in Table 31 are the sequences, motifs and conjugates of the GCGR antisense compounds used in this study. Bolded residues indicate 2′-O-methoxyethyl (2′-MOE) moieties. All compounds comprise phosphorothioate internucleoside linkages throughout and each cytosine is replaced with 5-methylcytosine. ISIS 386626, ISIS 386627 and ISIS 386628 further comprise a C16 conjugate group attached to the 2′-O position of the sugar via a diamide linkage (2′-OCH2C(═O)N(H)(CH2)4N(H)C(═O)—(CH2)15CH3). GCGR antisense compounds target published GCGR sequences, including Genbank® Accession No. BC031885.1 (SEQ ID NO: 7).
(§2) Mice were sacrificed 48 hours following injection to determine serum transaminase levels (Table 32); liver, white adipose tissue (WAT), spleen and kidney weight (Table 33); cholesterol, triglyceride and glucose levels (Table 34); GCGR mRNA levels (Tables 35-41); and full-length and total oligonucleotide concentration in liver and kidney (Table 42). Endpoints were assessed using methods described herein and well known to those of ordinary skill in the art. Data is included from a pre-treatment bleed (Pre-Bleed) and post-treatment bleed (Post-Bleed).
To determine whether the phenotypic changes shown above correlated with a decrease in GCGR mRNA, treated animals were evaluated for levels of target mRNA in liver by real time PCR according to methods described herein. Tables 35 to 41 show results from direct comparisons of the antisense compounds targeting GCGR nucleic acid for their effect on target expression. Results are expressed as percent of saline control.

[2] = ALT & AST levels and toxic effects, GCGR study (Table 32); conditions: C57/BL6 mice, pre-treatment bleed
Description: as §1, §2

[3] = Triglyceride, cholesterol and glucose levels, pre-bleed and post-bleed, GCGR study (Table 34); parameters: Triglyceride (TRIG) Pre-Bleed / Triglyceride (TRIG) Post-Bleed / Cholesterol (CHOL) Pre-Bleed / Cholesterol (CHOL) Post-Bleed / Glucose Pre-Bleed / Glucose Post-Bleed: unit not given here; conditions: for Cholesterol (CHOL) Pre-Bleed / Triglyceride (TRIG) Pre-Bleed: pre-treatment bleed; for Cholesterol (CHOL) Post-Bleed / Triglyceride (TRIG) Post-Bleed: post-treatment bleed
Description: as §1, §2

[4] = Organ weights: liver, WAT, spleen, kidney, GCGR study (Table 33); conditions: 48 h
Description: as §1, §2

[5] = Total and full-length antisense compound concentrations in liver and kidney, GCGR study (Table 42); conditions: 48 h after single i.p. dose
Description: as §1, §2
Treatment with the 2-10-2 MOE gapmers led to a significant dose-dependent decrease in GCGR mRNA expression. […] To determine whether the observed increase in efficiency with the short antisense compounds is due to an increase in antisense compound accumulation, full-length and total antisense compound concentration in the liver and kidney were determined.

148364 (antisense eT*eG*e[5mC]*eA*e[5mC]*dT*dT*dT*dG*dT*dG*dG*dT*dA*d[5mC]*e[5mC]*eA*eA*eG*eG) [compound 148364]
GCGR mRNA levels ([1]; 6.25 mg/kg, Table 35 comparison ISIS 148364 & ISIS 386626): 62% of saline control
GCGR mRNA levels ([1]; 6.25 mg/kg, Table 36 comparison ISIS 148364 & ISIS 386627): 86% of saline control
GCGR mRNA levels ([1]; 6.25 mg/kg, Table 37 comparison ISIS 148364 & ISIS 386593): 86% of saline control
GCGR mRNA levels ([1]; 6.25 mg/kg, Table 38 comparison ISIS 148364 & ISIS 386628): 101% of saline control
GCGR mRNA levels ([1]; 6.25 mg/kg, Table 39 comparison ISIS 148364 & ISIS 386594): 96% of saline control
GCGR mRNA levels ([1]; 12.5 mg/kg, Table 35 comparison ISIS 148364 & ISIS 386626): 87% of saline control
GCGR mRNA levels ([1]; 12.5 mg/kg, Table 36 comparison ISIS 148364 & ISIS 386627): 105% of saline control
GCGR mRNA levels ([1]; 12.5 mg/kg, Table 37 comparison ISIS 148364 & ISIS 386593): 105% of saline control
GCGR mRNA levels ([1]; 12.5 mg/kg, Table 38 comparison ISIS 148364 & ISIS 386628): 98% of saline control
GCGR mRNA levels ([1]; 12.5 mg/kg, Table 39 comparison ISIS 148364 & ISIS 386594): 102% of saline control
GCGR mRNA levels ([1]; 25 mg/kg, Table 35 comparison ISIS 148364 & ISIS 386626): 79% of saline control
GCGR mRNA levels ([1]; 25 mg/kg, Table 36 comparison ISIS 148364 & ISIS 386627): 87% of saline control
GCGR mRNA levels ([1]; 25 mg/kg, Table 37 comparison ISIS 148364 & ISIS 386593): 74% of saline control
GCGR mRNA levels ([1]; 25 mg/kg, Table 38 comparison ISIS 148364 & ISIS 386628): 77% of saline control
GCGR mRNA levels ([1]; 25 mg/kg, Table 39 comparison ISIS 148364 & ISIS 386594): 98% of saline control
GCGR mRNA levels ([1]; 50 mg/kg, Table 35 comparison ISIS 148364 & ISIS 386626): 36% of saline control
GCGR mRNA levels ([1]; 50 mg/kg, Table 36 comparison ISIS 148364 & ISIS 386627): 63% of saline control
GCGR mRNA levels ([1]; 50 mg/kg, Table 37 comparison ISIS 148364 & ISIS 386593): 56% of saline control
GCGR mRNA levels ([1]; 50 mg/kg, Table 38 comparison ISIS 148364 & ISIS 386628): 42% of saline control
GCGR mRNA levels ([1]; 50 mg/kg, Table 39 comparison ISIS 148364 & ISIS 386594): 59% of saline control
ALT Pre-Bleed ([2]; dose group 6.25 mg/kg): 28 IU/L
AST Pre-Bleed ([2]; dose group 6.25 mg/kg): 47 IU/L
ALT Pre-Bleed ([2]; dose group 12.5 mg/kg): 23 IU/L
AST Pre-Bleed ([2]; dose group 12.5 mg/kg): 44 IU/L
ALT Pre-Bleed ([2]; dose group 25 mg/kg): 26 IU/L
AST Pre-Bleed ([2]; dose group 25 mg/kg): 42 IU/L
ALT Pre-Bleed ([2]; dose group 50 mg/kg): 24 IU/L
AST Pre-Bleed ([2]; dose group 50 mg/kg): 40 IU/L
Cholesterol (CHOL) Pre-Bleed ([3]; 6.25 mg/kg group): 86
Triglyceride (TRIG) Pre-Bleed ([3]; 6.25 mg/kg group): 86
Cholesterol (CHOL) Post-Bleed ([3]; 6.25 mg/kg single i.p.): 89
Triglyceride (TRIG) Post-Bleed ([3]; 6.25 mg/kg single i.p.): 162
Cholesterol (CHOL) Pre-Bleed ([3]; 12.5 mg/kg group): 85
Triglyceride (TRIG) Pre-Bleed ([3]; 12.5 mg/kg group): 106
Cholesterol (CHOL) Post-Bleed ([3]; 12.5 mg/kg single i.p.): 89
Triglyceride (TRIG) Post-Bleed ([3]; 12.5 mg/kg single i.p.): 179
Cholesterol (CHOL) Pre-Bleed ([3]; 25 mg/kg group): 83
Triglyceride (TRIG) Pre-Bleed ([3]; 25 mg/kg group): 115
Cholesterol (CHOL) Post-Bleed ([3]; 25 mg/kg single i.p.): 96
Triglyceride (TRIG) Post-Bleed ([3]; 25 mg/kg single i.p.): 200
Cholesterol (CHOL) Pre-Bleed ([3]; 50 mg/kg group): 81
Triglyceride (TRIG) Pre-Bleed ([3]; 50 mg/kg group): 110
Cholesterol (CHOL) Post-Bleed ([3]; 50 mg/kg single i.p.): 94
Triglyceride (TRIG) Post-Bleed ([3]; 50 mg/kg single i.p.): 177
Organ Weights: Kidney ([4]; 6.25 mg/kg single i.p.): 104 % saline control
Organ Weights: Liver ([4]; 6.25 mg/kg single i.p.): 101 % saline control
Organ Weights: Spleen ([4]; 6.25 mg/kg single i.p.): 113 % saline control
Organ Weights: WAT ([4]; 6.25 mg/kg single i.p.): 89 % saline control
Organ Weights: Kidney ([4]; 12.5 mg/kg single i.p.): 108 % saline control
Organ Weights: Liver ([4]; 12.5 mg/kg single i.p.): 100 % saline control
Organ Weights: Spleen ([4]; 12.5 mg/kg single i.p.): 96 % saline control
Organ Weights: WAT ([4]; 12.5 mg/kg single i.p.): 84 % saline control
Organ Weights: Kidney ([4]; 25 mg/kg single i.p.): 112 % saline control
Organ Weights: Liver ([4]; 25 mg/kg single i.p.): 103 % saline control
Organ Weights: Spleen ([4]; 25 mg/kg single i.p.): 115 % saline control
Organ Weights: WAT ([4]; 25 mg/kg single i.p.): 75 % saline control
Organ Weights: Kidney ([4]; 50 mg/kg single i.p.): 108 % saline control
Organ Weights: Liver ([4]; 50 mg/kg single i.p.): 103 % saline control
Organ Weights: Spleen ([4]; 50 mg/kg single i.p.): 123 % saline control
Organ Weights: WAT ([4]; 50 mg/kg single i.p.): 80 % saline control
Full-length Antisense Compound Concentration Kidney ([5]; kidney): 58 µg/g
Total Antisense Compound Concentration Kidney ([5]; kidney): 90 µg/g
Full-length Antisense Compound Concentration Liver ([5]; liver): 46 µg/g
Total Antisense Compound Concentration Liver ([5]; liver): 54 µg/g
